# Measurements published in patent US20230398130A1, “METHODS AND COMPOSITIONS FOR DIFFERENTIATING STEM CELLS” (Massachusetts Institute of Technology, priority 2020, published 2023).
# Experiments:
# ISC-enriched organoids [1] = experiment: Primary screen, 384-well 2.5-D organoid differentiation (ENR+CD, 6 days): carbachol-induced lysozyme secretion (LYZ.S); type: cell-based, murine; settings: for Dose.FC.LYZ.S (log 2 fold change): vs plate median; for Dose.FC.LYZ.S: FC vs plate median
# Source text: (§1) High-throughput screening.
# ISC-enriched organoids [2] = experiment: Primary screen, 384-well 2.5-D organoid differentiation (ENR+CD, 6 days): basal lysozyme secretion (LYZ.NS); type: cell-based, murine; settings: for Dose.FC.LYZ.NS (log 2 fold change): vs plate median; for Dose.FC.LYZ.NS: FC vs plate median
# Source text: as §1
# ISC-enriched organoids [3] = experiment: Primary screen, 384-well 2.5-D organoid differentiation (ENR+CD, 6 days, Target Selective Inhibitor Library, vs whole-plate median): ATP (CellTiter-Glo 3D, CTG); settings: for Dose.FC.CTG (log 2 fold change): vs plate median; for Dose.FC.CTG: FC vs plate median
# [4] = Dose 0.08 uM, primary screen, standard z score
# [5] = Dose 0.40 uM, primary screen, standard z score
# [6] = Dose 2.00 uM, primary screen, standard z score
# [7] = Dose 10.00 uM, primary screen, standard z score
# [8] = Dose 0.08 uM, standard z score of FC
# [9] = Dose 0.40 uM, standard z score of FC
# [10] = Dose 2.00 uM, standard z score of FC
# [11] = Dose 10.00 uM, standard z score of FC
compound,measurement,setting,value
CC(C)(C)c1cc(NC(=O)Nc2ccc(-c3cn4c(n3)sc3cc(OCCN5CCOCC5)ccc34)cc2)no1 [Quizartinib (AC220)],Dose.FC.LYZ.S (log 2 fold change),"ISC-enriched organoids [1]; Dose 0.08 uM, primary screen",0.154
same,Dose.FC.LYZ.S (log 2 fold change),"ISC-enriched organoids [1]; Dose 0.40 uM, primary screen",0.083
same,Dose.FC.LYZ.S (log 2 fold change),"ISC-enriched organoids [1]; Dose 2.00 uM, primary screen",−0.077
same,Dose.FC.LYZ.S (log 2 fold change),"ISC-enriched organoids [1]; Dose 10.00 uM, primary screen",−0.200
same,Z.LYZ.NS (standard z score),"ISC-enriched organoids [2]; Dose 0.08 uM, primary screen",0.836
same,Dose.FC.LYZ.NS (log 2 fold change),"ISC-enriched organoids [2]; Dose 0.08 uM, primary screen",0.096
same,Z.LYZ.NS (standard z score),"ISC-enriched organoids [2]; Dose 0.40 uM, primary screen",0.341
same,Dose.FC.LYZ.NS (log 2 fold change),"ISC-enriched organoids [2]; Dose 0.40 uM, primary screen",0.039
same,Z.LYZ.NS (standard z score),"ISC-enriched organoids [2]; Dose 2.00 uM, primary screen",−0.452
same,Dose.FC.LYZ.NS (log 2 fold change),"ISC-enriched organoids [2]; Dose 2.00 uM, primary screen",−0.052
same,Z.LYZ.NS (standard z score),"ISC-enriched organoids [2]; Dose 10.00 uM, primary screen",−1.505
same,Dose.FC.LYZ.NS (log 2 fold change),"ISC-enriched organoids [2]; Dose 10.00 uM, primary screen",−0.173
same,Z.CTG (standard z score),"ISC-enriched organoids [3]; Dose 0.08 uM, primary screen",0.838
same,Dose.FC.CTG (log 2 fold change),"ISC-enriched organoids [3]; Dose 0.08 uM, primary screen",0.351
same,Z.CTG (standard z score),"ISC-enriched organoids [3]; Dose 0.40 uM, primary screen",0.355
same,Dose.FC.CTG (log 2 fold change),"ISC-enriched organoids [3]; Dose 0.40 uM, primary screen",0.149
same,Z.CTG (standard z score),"ISC-enriched organoids [3]; Dose 2.00 uM, primary screen",−0.841
same,Dose.FC.CTG (log 2 fold change),"ISC-enriched organoids [3]; Dose 2.00 uM, primary screen",−0.352
same,Z.CTG (standard z score),"ISC-enriched organoids [3]; Dose 10.00 uM, primary screen",−1.539
same,Dose.FC.CTG (log 2 fold change),"ISC-enriched organoids [3]; Dose 10.00 uM, primary screen",−0.644
CC(C)c1noc(N2CCC(COc3ccc(-c4ccc(S(C)(=O)=O)cc4)nc3)CC2)n1 [GSK1292263],Dose.FC.LYZ.S,"ISC-enriched organoids [1]; Dose 0.08 uM, primary screen",0.111 log 2 fold change
same,Dose.FC.LYZ.S,"ISC-enriched organoids [1]; Dose 0.40 uM, primary screen",0.101 log 2 fold change
same,Dose.FC.LYZ.S,"ISC-enriched organoids [1]; Dose 2.00 uM, primary screen",0.060 log 2 fold change
same,Dose.FC.LYZ.S,"ISC-enriched organoids [1]; Dose 10.00 uM, primary screen",0.027 log 2 fold change
same,Dose.FC.LYZ.NS,"ISC-enriched organoids [2]; Dose 0.08 uM, primary screen",0.078 log 2 fold change
same,Z.LYZ.NS,ISC-enriched organoids [2]; [4],0.681
same,Dose.FC.LYZ.NS,"ISC-enriched organoids [2]; Dose 0.40 uM, primary screen",0.050 log 2 fold change
same,Z.LYZ.NS,ISC-enriched organoids [2]; [5],0.434
same,Dose.FC.LYZ.NS,"ISC-enriched organoids [2]; Dose 2.00 uM, primary screen",0.028 log 2 fold change
same,Z.LYZ.NS,ISC-enriched organoids [2]; [6],0.240
same,Dose.FC.LYZ.NS,"ISC-enriched organoids [2]; Dose 10.00 uM, primary screen",0.020 log 2 fold change
same,Z.LYZ.NS,ISC-enriched organoids [2]; [7],0.173
same,Dose.FC.CTG,"ISC-enriched organoids [3]; Dose 0.08 uM, primary screen",0.161 log 2 fold change
same,Z.CTG,ISC-enriched organoids [3]; [4],0.384
same,Dose.FC.CTG,"ISC-enriched organoids [3]; Dose 0.40 uM, primary screen",0.192 log 2 fold change
same,Z.CTG,ISC-enriched organoids [3]; [5],0.458
same,Dose.FC.CTG,"ISC-enriched organoids [3]; Dose 2.00 uM, primary screen",0.224 log 2 fold change
same,Z.CTG,ISC-enriched organoids [3]; [6],0.535
same,Dose.FC.CTG,"ISC-enriched organoids [3]; Dose 10.00 uM, primary screen",0.196 log 2 fold change
same,Z.CTG,ISC-enriched organoids [3]; [7],0.468
Cc1[nH]c2ccccc2c1CCNC(=O)c1cccs1 [CK-636],Dose.FC.LYZ.S,"ISC-enriched organoids [1]; Dose 0.08 uM, ENR+CD, 6 days",0.080 log 2 fold change
same,Dose.FC.LYZ.S,"ISC-enriched organoids [1]; Dose 0.40 uM, ENR+CD, 6 days",−0.013 log 2 fold change
same,Dose.FC.LYZ.S,"ISC-enriched organoids [1]; Dose 2.00 uM, ENR+CD, 6 days",0.072 log 2 fold change
same,Dose.FC.LYZ.S,"ISC-enriched organoids [1]; Dose 10.00 uM, ENR+CD, 6 days",−0.103 log 2 fold change
same,Dose.FC.LYZ.NS,"ISC-enriched organoids [2]; Dose 0.08 uM, ENR+CD, 6 days",0.039 log 2 fold change
same,Z.LYZ.NS,ISC-enriched organoids [2]; [8],0.336
same,Dose.FC.LYZ.NS,"ISC-enriched organoids [2]; Dose 0.40 uM, ENR+CD, 6 days",−0.049 log 2 fold change
same,Z.LYZ.NS,ISC-enriched organoids [2]; [9],−0.427
same,Dose.FC.LYZ.NS,"ISC-enriched organoids [2]; Dose 2.00 uM, ENR+CD, 6 days",−0.066 log 2 fold change
same,Z.LYZ.NS,ISC-enriched organoids [2]; [10],−0.573
same,Dose.FC.LYZ.NS,"ISC-enriched organoids [2]; Dose 10.00 uM, ENR+CD, 6 days",−0.108 log 2 fold change
same,Z.LYZ.NS,ISC-enriched organoids [2]; [11],−0.944
same,Dose.FC.CTG,"ISC-enriched organoids [3]; Dose 0.08 uM, ENR+CD, 6 days",0.202 log 2 fold change
same,Z.CTG,ISC-enriched organoids [3]; [8],0.483
same,Dose.FC.CTG,"ISC-enriched organoids [3]; Dose 0.40 uM, ENR+CD, 6 days",−0.004 log 2 fold change
same,Z.CTG,ISC-enriched organoids [3]; [9],−0.010
same,Dose.FC.CTG,"ISC-enriched organoids [3]; Dose 2.00 uM, ENR+CD, 6 days",−0.201 log 2 fold change
same,Z.CTG,ISC-enriched organoids [3]; [10],−0.479
same,Dose.FC.CTG,"ISC-enriched organoids [3]; Dose 10.00 uM, ENR+CD, 6 days",−0.169 log 2 fold change
same,Z.CTG,ISC-enriched organoids [3]; [11],−0.404
